From patent US8178506B2, “Oligomeric compounds and compositions for use in modulation of small non-coding RNAs” (Regulus Therapeutics Inc., priority 2003, dated 2012)
In the oligonucleotide strings, read from the 5' end, every base follows the letter of its sugar. An asterisk marks phosphorothioate; unmarked linkages are phosphodiester. Other units and linkages are bracketed, terminal groups are in braces. A string of capitals states the bases alone. e = 2'-O-(2-methoxyethyl) (MOE); [5mC] = 5-methylcytosine

Key:
IL-12 mRNA = IL-12 mRNA in LPS-activated primary murine macrophages; type: cell-based, mouse; conditions: for IL-12 mRNA expression, −IFN % UTC: 300 nM oligomeric compound and LPS, no IFN-gamma pretreatment, single experiment; for IL-12 mRNA expression, −IFN % UTC / IL-12 mRNA expression, +IFN % UTC: normalized to LPS-treated cells without oligomeric compound; for IL-12 mRNA expression, % UTC: LPS, average of 3 treatments; for IL-12 mRNA expression, +IFN % UTC: 300 nM oligomeric compound, stimulation with IFN-gamma and LPS, average of 2 experiments
PEPCK-c = PEPCK-c mRNA expression in HepG2 cells; type: cell-based, human; conditions: for PEPCKc mRNA expression: Experiment 2, insulin treated: HepG2 cells transfected with oligomeric compound, 1 nM insulin for four hours, UTC + 1 nM insulin = 100; for PEPCK-c (% UTC): HepG2, 100 nM oligomeric compound; for PEPCKc mRNA: HepG2 cells, four hours, UTC = 100
follistatin = assay: Follistatin mRNA expression in HepG2 cells; type: cell-based, human; conditions: for Follistatin mRNA expression: Experiment 2, insulin treated: HepG2 cells transfected with oligomeric compound, 1 nM insulin for four hours, UTC + 1 nM insulin = 100; for Follistatin (% UTC): HepG2, 100 nM oligomeric compound; for Follistatin mRNA: HepG2 cells, four hours, UTC = 100
[1] = Experiment 1, basal (no insulin)
[2] = Experiment 2, 1 nM insulin treated

Substance: 342673 (antisense eA*eG*eA*e[5mC]*eT*eA*eG*e[5mC]*eG*eG*eT*eA*eT*e[5mC]*eT*eT*eT*eA*eT*e[5mC]*e[5mC]*e[5mC]) [compound 342673]
- IL-12 mRNA expression, −IFN % UTC (IL-12 mRNA): 91 % UTC

Substance: 327921 (antisense e[5mC]*eT*eT*e[5mC]*e[5mC]*eA*eG*eT*e[5mC]*eG*eG*eG*eG*eA*eT*eG*eT*eT*eT*eA*e[5mC]*eA) [compound 327921]
- IL-12 mRNA expression, % UTC (IL-12 mRNA; 75 nM, +IFN): 14 % UTC
- IL-12 mRNA expression, % UTC (IL-12 mRNA; 75 nM, −IFN): 109 % UTC
- IL-12 mRNA expression, % UTC (IL-12 mRNA; 150 nM, +IFN): 7 % UTC
- IL-12 mRNA expression, % UTC (IL-12 mRNA; 150 nM, −IFN): 88 % UTC
- IL-12 mRNA expression, −IFN % UTC (IL-12 mRNA): 325 % UTC
- IL-12 mRNA expression, +IFN % UTC (IL-12 mRNA): 24 % UTC
- IL-12 mRNA expression, % UTC (IL-12 mRNA; 300 nM, +IFN): 5 % UTC
- IL-12 mRNA expression, % UTC (IL-12 mRNA; 300 nM, −IFN): 67 % UTC
- IL-12 mRNA expression, % UTC (IL-12 mRNA; 600 nM, +IFN): 5 % UTC
- IL-12 mRNA expression, % UTC (IL-12 mRNA; 600 nM, −IFN): 53 % UTC

Substance: 328115 (antisense eA*eG*eA*eA*eG*eG*eT*eG*eG*eG*eG*eA*eG*e[5mC]*eA*eG*e[5mC]*eG*eT*e[5mC]*eA) [compound 328115]
- PEPCKc mRNA expression (PEPCK-c): 59
- Follistatin mRNA expression (follistatin): 91

Substance: 328138 (eG*eA*eG*e[5mC]*eT*eG*e[5mC]*eT*e[5mC]*eA*eG*e[5mC]*eT*eG*eG*e[5mC]*e[5mC]*eA*eT*e[5mC]*eA; anti-miR) [compound 328138]
- IL-12 mRNA expression, −IFN % UTC (IL-12 mRNA): 277 % UTC
- IL-12 mRNA expression, +IFN % UTC (IL-12 mRNA): 31 % UTC

Substance: 327927 (antisense eT*eG*eT*eA*eA*eA*e[5mC]*e[5mC]*eA*eT*eG*eA*eT*eG*eT*eG*e[5mC]*eT*eG*e[5mC]*eT*eA) [compound 327927]
- IL-12 mRNA expression, −IFN % UTC (IL-12 mRNA): 164 % UTC
- IL-12 mRNA expression, +IFN % UTC (IL-12 mRNA): 33 % UTC

Substance: 327905 (antisense e[5mC]*eA*eG*eA*e[5mC]*eT*e[5mC]*e[5mC]*eG*eG*eT*eG*eG*eA*eA*eT*eG*eA*eA*eG*eG*eA) [compound 327905]
- PEPCK-c (% UTC) (PEPCK-c; [1]): 129 % UTC
- PEPCK-c (% UTC) (PEPCK-c; [2]): 147 % UTC
- Follistatin (% UTC) (follistatin; [1]): 104 % UTC
- Follistatin (% UTC) (follistatin; [2]): 148 % UTC

Substance: 328117 (antisense eT*e[5mC]*e[5mC]*eA*e[5mC]*eA*eA*eA*eG*e[5mC]*eT*eG*eA*eA*e[5mC]*eA*eT*eG*eT*e[5mC]*eT) [compound 328117]
- IL-12 mRNA expression, −IFN % UTC (IL-12 mRNA): 162 % UTC
- IL-12 mRNA expression, +IFN % UTC (IL-12 mRNA): 72 % UTC

Substance: 327922 (antisense eT*e[5mC]*eA*eG*eT*eT*eT*eT*eG*e[5mC]*eA*eT*eG*eG*eA*eT*eT*eT*eG*e[5mC]*eA*e[5mC]*eA) [compound 327922]
- PEPCK-c (% UTC) (PEPCK-c; [1]): 77 % UTC
- PEPCK-c (% UTC) (PEPCK-c; [2]): 76 % UTC
- Follistatin (% UTC) (follistatin; [1]): 57 % UTC
- Follistatin (% UTC) (follistatin; [2]): 61 % UTC

Substance: 328125 (antisense eT*eA*eT*eG*eA*eA*eA*eT*eG*e[5mC]*e[5mC]*eA*eG*eA*eG*e[5mC]*eT*eG*e[5mC]*e[5mC]*eA) [compound 328125]
- PEPCKc mRNA expression (PEPCK-c): 77
- Follistatin mRNA expression (follistatin): 107

Substance: 328123 (antisense eT*eT*eA*e[5mC]*eA*eG*eG*eT*eG*e[5mC]*eT*eG*e[5mC]*eA*eA*e[5mC]*eT*eG*eG*eA*eA) [compound 328123]
- IL-12 mRNA expression, −IFN % UTC (IL-12 mRNA): 176 % UTC
- IL-12 mRNA expression, +IFN % UTC (IL-12 mRNA): 14 % UTC

Substance: 327917 (antisense eT*e[5mC]*eA*eA*e[5mC]*eA*eT*e[5mC]*eA*eG*eT*e[5mC]*eT*eG*eA*eT*eA*eA*eG*e[5mC]*eT*eA) [compound 327917]
- IL-12 mRNA expression, −IFN % UTC (IL-12 mRNA): 225 % UTC
- IL-12 mRNA expression, +IFN % UTC (IL-12 mRNA): 35 % UTC

Substance: 327954 (antisense eA*e[5mC]*eA*eA*eA*eG*eT*eT*e[5mC]*eT*eG*eT*eG*eA*eT*eG*e[5mC]*eA*e[5mC]*eT*eG*eA) [compound 327954]
- PEPCK-c (% UTC) (PEPCK-c; [1]): 79 % UTC
- PEPCK-c (% UTC) (PEPCK-c; [2]): 102 % UTC
- Follistatin (% UTC) (follistatin; [1]): 100 % UTC
- Follistatin (% UTC) (follistatin; [2]): 105 % UTC

Substance: 327880 (antisense eA*e[5mC]*eA*eA*eA*eT*eT*e[5mC]*eG*eG*eT*eT*e[5mC]*eT*eA*e[5mC]*eA*eG*eG*eG*eT*eA) [compound 327880]
- PEPCK-c (% UTC) (PEPCK-c; [1]): 110 % UTC
- PEPCK-c (% UTC) (PEPCK-c; [2]): 125 % UTC
- Follistatin (% UTC) (follistatin; [1]): 107 % UTC
- Follistatin (% UTC) (follistatin; [2]): 149 % UTC

Substance: 341806 (antisense GCCAATATTTCTGTGCTGCTA; all 2'-MOE, all phosphorothioate, methylation of C not given here) [compound 341806]
- PEPCKc mRNA (PEPCK-c; [1]): 79
- Follistatin mRNA (follistatin; [1]): 75

Substance: 327933 (antisense eA*eA*eG*eG*eG*eA*eT*eT*e[5mC]*e[5mC]*eT*eG*eG*eG*eA*eA*eA*eA*e[5mC]*eT*eG*eG*eA*e[5mC]) [compound 327933]
- PEPCK-c (% UTC) (PEPCK-c; [1]): 118 % UTC
- PEPCK-c (% UTC) (PEPCK-c; [2]): 115 % UTC
- Follistatin (% UTC) (follistatin; [1]): 112 % UTC
- Follistatin (% UTC) (follistatin; [2]): 185 % UTC

Substance: 327895 (antisense eA*e[5mC]*eA*eA*eA*e[5mC]*eA*e[5mC]*e[5mC]*eA*eT*eT*eG*eT*e[5mC]*eA*e[5mC]*eA*e[5mC]*eT*e[5mC]*e[5mC]*eA) [compound 327895]
- PEPCKc mRNA (PEPCK-c; [1]): 71
- Follistatin mRNA (follistatin; [1]): 83

Substance: 328137 (eG*eT*eA*eA*eG*e[5mC]*eG*e[5mC]*eA*eG*e[5mC]*eT*e[5mC]*e[5mC]*eA*e[5mC]*eA*eG*eG*e[5mC]*eT; anti-miR) [compound 328137]
- IL-12 mRNA expression, −IFN % UTC (IL-12 mRNA): 213 % UTC
- IL-12 mRNA expression, +IFN % UTC (IL-12 mRNA): 12 % UTC

Substance: 327878 (antisense e[5mC]*eT*eA*eG*eT*eG*eG*eT*e[5mC]*e[5mC]*eT*eA*eA*eA*e[5mC]*eA*eT*eT*eT*e[5mC]*eA*e[5mC]) [compound 327878]
- PEPCK-c (% UTC) (PEPCK-c; [1]): 45 % UTC
- PEPCK-c (% UTC) (PEPCK-c; [2]): 29 % UTC
- Follistatin (% UTC) (follistatin; [1]): 124 % UTC
- Follistatin (% UTC) (follistatin; [2]): 150 % UTC

Substance: 341803 (antisense CCACACACTTCCTTACATTCCA; all 2'-MOE, all phosphorothioate, methylation of C not given here) [compound 341803]
- PEPCKc mRNA (PEPCK-c; [1]): 110
- Follistatin mRNA (follistatin; [1]): 68

Substance: 328110 (antisense eG*eA*eT*eA*eA*eA*eG*e[5mC]*e[5mC]*eA*eA*eT*eA*eA*eA*e[5mC]*eT*eG*eT*e[5mC]*eA) [compound 328110]
- IL-12 mRNA expression, −IFN % UTC (IL-12 mRNA): 221 % UTC
- IL-12 mRNA expression, +IFN % UTC (IL-12 mRNA): 8 % UTC

Substance: 327931 (antisense eA*eA*e[5mC]*e[5mC]*eA*eT*eA*e[5mC]*eA*eA*e[5mC]*e[5mC]*eT*eA*e[5mC]*eT*eA*e[5mC]*e[5mC]*eT*e[5mC]*eA) [compound 327931]
- IL-12 mRNA expression, −IFN % UTC (IL-12 mRNA): 105 % UTC
- IL-12 mRNA expression, +IFN % UTC (IL-12 mRNA): 48 % UTC

Substance: 328133 (eT*eG*eA*eA*eG*eG*eT*eT*e[5mC]*eG*eG*eA*eG*eA*eT*eA*eG*eG*e[5mC]*eT*eA; anti-miR) [compound 328133]
- IL-12 mRNA expression, −IFN % UTC (IL-12 mRNA): 165 % UTC
- IL-12 mRNA expression, +IFN % UTC (IL-12 mRNA): 62 % UTC

Substance: 327912 (antisense eA*eA*e[5mC]*eT*eA*eT*eA*e[5mC]*eA*eA*eT*e[5mC]*eT*eA*e[5mC]*eT*eA*e[5mC]*e[5mC]*eT*e[5mC]*eA) [compound 327912]
- IL-12 mRNA expression, −IFN % UTC (IL-12 mRNA): 206 % UTC
- IL-12 mRNA expression, +IFN % UTC (IL-12 mRNA): 39 % UTC

Substance: 327928 (antisense eA*eA*e[5mC]*e[5mC]*eG*eA*eT*eT*eT*e[5mC]*eA*eG*eA*eT*eG*eG*eT*eG*e[5mC]*eT*eA*eG) [compound 327928]
- IL-12 mRNA expression, −IFN % UTC (IL-12 mRNA): 201 % UTC
- IL-12 mRNA expression, +IFN % UTC (IL-12 mRNA): 61 % UTC

Substance: 327967 (antisense eA*e[5mC]*eT*eG*eT*eA*e[5mC]*eA*eA*eA*e[5mC]*eT*eA*e[5mC]*eT*eA*e[5mC]*e[5mC]*eT*e[5mC]*eA) [compound 327967]
- IL-12 mRNA expression, −IFN % UTC (IL-12 mRNA): 203 % UTC
- IL-12 mRNA expression, +IFN % UTC (IL-12 mRNA): 43 % UTC

Substance: 328129 (antisense eA*eG*e[5mC]*e[5mC]*eT*e[5mC]*e[5mC]*eT*eT*e[5mC]*eT*eT*e[5mC]*eT*e[5mC]*eG*eT*eA*e[5mC]*eT*eA) [compound 328129]
- IL-12 mRNA expression, −IFN % UTC (IL-12 mRNA): 87 % UTC
- IL-12 mRNA expression, +IFN % UTC (IL-12 mRNA): 10 % UTC

Substance: 328105 (antisense e[5mC]*e[5mC]*eT*e[5mC]*eA*eA*eT*eT*eA*eT*eT*eG*eG*eA*eA*eA*eT*e[5mC]*eA*e[5mC]*eA) [compound 328105]
- IL-12 mRNA expression, −IFN % UTC (IL-12 mRNA): 108 % UTC
- IL-12 mRNA expression, +IFN % UTC (IL-12 mRNA): 57 % UTC

Substance: 327956 (antisense e[5mC]*eA*e[5mC]*eA*eG*eT*eT*eG*e[5mC]*e[5mC]*eA*eG*e[5mC]*eT*eG*eA*eG*eA*eT*eT*eA) [compound 327956]
- IL-12 mRNA expression, −IFN % UTC (IL-12 mRNA): 212 % UTC
- IL-12 mRNA expression, +IFN % UTC (IL-12 mRNA): 59 % UTC
